Laboratory results reported in patent US20220184081A1, “ANTIPRURITIC AGENT USING PAC1 RECEPTOR ANTAGONIST” (KAGOSHIMA UNIVERSITY, priority 2019, published 2022).

What was measured:
[1] = system: dry skin itch mouse model; test: Dry skin itch mouse model (AEW treatment); assay type: in vivo, ICR mice; conditions: oral PA-8 3, 10 or 30 mg/kg; observed 1 hour from 30 minutes after administration; FIG. 3
Protocol: The present test was carried out with reference to the method of Miyamoto et al. that is a test system published as a method for evaluating itch in animals (Miyamoto T., Nojima H., Shinkado T., et al.: Itch-associated response induced by experimental dry skin in mice, Jpn. J. Phamacol., 88, 285-292, 2002).
Five-week-old ICR mice (40 mice) were each placed in a cage, and were then conditioned for 1 week. Thereafter, three days before initiation of the test, the rostral back of each mouse was shaved (treatment method A). The thus shaved 40 mice were divided into 5 groups (8 mice/group), namely, into a 3 mg/kg PA-8 oral (p.o.) administration group, a 10 mg/kg PA-8 oral (p.o.) administration group, a 30 mg/kg PA-8 oral (p.o.) administration group, a comparative group, and a control group.
In the PA-8 administration groups, the mice, which had undergone a shaving treatment (treatment method A), were subjected to ether anesthesia. Thereafter, a cotton (2×2 cm) impregnated with a mixed solution of acetone (A): diethyl ether (E) (1:1) was applied to the rostral back of each mouse for 15 seconds, and then, a cotton impregnated with ion exchange water (W) was applied thereto for 30 seconds [hereinafter, a series of treatments are abbreviated as an AEW treatment (treatment method B)]. The AEW treatment was carried out twice a day, with intervals of 8 hours, for 5 days. […]

[2] = system: psoriasis mouse model; test: Psoriasis mouse model (imiquimod); assay type: in vivo, ICR mice; conditions: 30 mg/kg p.o. 30 minutes before 1 hour video observation; FIG. 14
Protocol: The present test was carried out with reference to the method of van der Fits et al. that is a test system published as a method for evaluating itch in animals (van der Fits L., Mounts S., Voerman J S A., et al.: Imiquimod-Induced Psoriasis-Like Skin Inflammation in Mice Is Mediated via the IL-23/IL-17 Axis, J. Immunol., 182, 5836-5845, 2009).
Five-week-old ICR mice (20 mice) were each placed in a cage, and were then conditioned for 1 week. Thereafter, three days before initiation of the test, the waist of each mouse was shaved. Then, 62.5 mg of commercially available imiquimod cream (5% Beselna Cream; MOCHIDA PHARMACEUTICAL CO., LTD.) was applied onto the shaved waist skin of the mice once a day for 5 days, so as to produce imiquimod-induced psoriasis model. Twenty-four hours after the final application of the cream (Day 5), video observation was carried out for 1 hour. The shaved 20 mice were divided into 5 groups (4 mice per group), namely, a 30 mg/kg PA-8 oral (p.o.) administration group, a 30 mg/kg compound 2o oral (p.o.) administration group, a 30 mg/kg PA-9 oral (p.o.) administration group, a 30 mg/kg compound 3d (p.o.) administration group, and a solvent administration group (VEH: oral administration of 10% DMSO aqueous solution). Oral administration was carried out 30 minutes before initiation of the video observation.

[3] = target: T1, mouse PAC1 receptor (Mus musculus, UniProt P70205); test: CREB phosphorylation by PACAP stimulus, Western blot, PAC1/CHO cells; assay type: cell-based
T1 construct: expressed in transfected cells; host or cells: CHO cells
T1 sequence (P70205 21-496): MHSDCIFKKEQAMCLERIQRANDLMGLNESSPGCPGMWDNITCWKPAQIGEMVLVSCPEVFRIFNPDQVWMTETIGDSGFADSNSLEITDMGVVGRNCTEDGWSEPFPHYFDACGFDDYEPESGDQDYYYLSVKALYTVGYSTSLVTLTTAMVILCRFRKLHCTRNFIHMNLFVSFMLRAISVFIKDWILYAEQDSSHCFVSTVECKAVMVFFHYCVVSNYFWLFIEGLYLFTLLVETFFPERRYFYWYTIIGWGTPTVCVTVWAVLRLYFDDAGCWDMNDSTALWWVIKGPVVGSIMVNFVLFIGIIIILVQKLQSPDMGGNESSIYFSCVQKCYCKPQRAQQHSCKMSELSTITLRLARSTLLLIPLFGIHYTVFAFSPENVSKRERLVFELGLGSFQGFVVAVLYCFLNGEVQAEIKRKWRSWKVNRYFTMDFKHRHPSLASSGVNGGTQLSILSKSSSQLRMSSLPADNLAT
Protocol: The effect of each compound on the phosphorylation of CREB (cAMP-responsive element-binding protein) produced by a PACAP stimulus was examined by Western blot analysis using an anti-phosphorylated CREB (pCREB) antibody with a mouse PAC1 receptor-expressing CHO cells (PAC1/CHO cells) and a mouse VPAC1 receptor-expressing CHO cells (VPAC1/CHO cells).
Specifically, treatment with a compound (PA-8, compound 2j and compound 2o) at 10 pM to 10 nM or a solvent therefor, DMSO (VEH: 0.1% DMSO-containing phosphate buffer solution) was performed for 30 minutes, 1 nM PACAP was then added, and protein was recovered within 30 minutes after a PACAP stimulus.
The effect of each compound on the phosphorylation of CREB (cAMP-responsive element-binding protein) produced by a PACAP stimulus was examined by Western blot analysis using an anti-phosphorylated CREB (pCREB) antibody with a mouse PAC1 receptor-expressing CHO cells (PAC1/CHO cells).

Structure (SMILES): C=CCOc1ccc(C2CC(=O)Nc3nc(N)[nH]c(=O)c32)cc1OC (stereo not shown) [PA-8]
- scratching behavior induced by the AEW treatment (time spent in scratching) [1]: significantly suppressed
- itch behavior induced by application of imiquimod (time spent in scratching) [2]: significantly suppressed
- CREB phosphorylation by PACAP (1 nM) ([3]; PAC1/CHO cells, compound 10 pM to 10 nM for 30 minutes before PACAP, FIG. 4A, 4C, 4D, 5): suppressed CREB phosphorylation
- receptor selectivity (PAC1 versus VPAC1) ([3]; concluded from PAC1/CHO and VPAC1/CHO pCREB data): PAC1 receptor selective antagonist
